These are literature values, as cited in patent US10493116B2, “Longevity gene expression enhancer” (Shiseido Company, Ltd., priority 2014, dated 2019).

Molecules are shown by their SMILES.

Series [1] has as its target T1, sirtuin-1 (Homo sapiens, UniProt Q96EB6).
T1 sequence (Q96EB6 1-747): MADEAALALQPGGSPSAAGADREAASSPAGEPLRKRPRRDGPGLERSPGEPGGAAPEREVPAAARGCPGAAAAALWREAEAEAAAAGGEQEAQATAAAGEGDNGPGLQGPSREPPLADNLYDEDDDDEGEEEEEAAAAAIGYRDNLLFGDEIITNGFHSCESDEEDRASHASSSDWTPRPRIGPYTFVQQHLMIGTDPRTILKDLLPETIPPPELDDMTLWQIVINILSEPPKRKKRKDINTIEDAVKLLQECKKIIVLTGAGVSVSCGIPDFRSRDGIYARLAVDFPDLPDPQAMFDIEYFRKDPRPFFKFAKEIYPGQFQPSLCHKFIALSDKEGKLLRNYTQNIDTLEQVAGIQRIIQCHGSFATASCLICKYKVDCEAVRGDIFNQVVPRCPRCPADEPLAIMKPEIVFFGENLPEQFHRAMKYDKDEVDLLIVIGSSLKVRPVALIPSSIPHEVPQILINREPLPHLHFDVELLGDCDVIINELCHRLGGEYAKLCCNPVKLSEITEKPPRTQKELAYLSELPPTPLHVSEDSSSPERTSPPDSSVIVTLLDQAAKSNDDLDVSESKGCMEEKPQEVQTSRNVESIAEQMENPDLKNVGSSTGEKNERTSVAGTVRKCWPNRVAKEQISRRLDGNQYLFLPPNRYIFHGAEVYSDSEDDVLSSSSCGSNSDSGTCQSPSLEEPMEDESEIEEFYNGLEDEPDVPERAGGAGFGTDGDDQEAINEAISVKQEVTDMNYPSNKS

In series [2] the test system is sirtuin-1. Particulars: quercetin produced from rutin in the body; J. Pharmacol. Sci., 2008, 108, 364-71.

Turning to `COc1ccc([C@@H]2CC(=O)c3c(O)cc(O[C@@H]4O[C@H](CO[C@@H]5O[C@@H](C)[C@H](O)[C@@H](O)[C@H]5O)[C@@H](O)[C@H](O)[C@H]4O)cc3O2)cc1O` [hesperidin], the “effect of activating sirtuin-1” value at sirtuin-1 [1] (at 5 μM, Biosci. Biotechnol. Biochem., 2012, 76(4), 640-645) is “effect of activating sirtuin-1”.

`O=c1c(O)c(-c2ccc(O)c(O)c2)oc2cc(O)cc(O)c12` [quercetin]: the “sirtuin-1 expression inhibiting effect” value in the series with sirtuin-1 [2] is “sirtuin-1 expression inhibiting effect”.

Regarding `O=C(/C=C/c1ccc(O)c(O)c1)O[C@@H]1C[C@](O)(C(=O)O)C[C@@H](O)[C@H]1O` [chlorogenic acid], at sirtuin-1 [1] (PLoS One, 2014, 9(2), e89166), the sirtuin-1 activating effect result was “no sirtuin-1 activating effect”.
